What all share (type): cell-based
The target in assay [1] is T1, Nuclear factor erythroid 2-related factor 2 (Mus musculus) (UniProt Q60795).
T1 sequence (whole entry): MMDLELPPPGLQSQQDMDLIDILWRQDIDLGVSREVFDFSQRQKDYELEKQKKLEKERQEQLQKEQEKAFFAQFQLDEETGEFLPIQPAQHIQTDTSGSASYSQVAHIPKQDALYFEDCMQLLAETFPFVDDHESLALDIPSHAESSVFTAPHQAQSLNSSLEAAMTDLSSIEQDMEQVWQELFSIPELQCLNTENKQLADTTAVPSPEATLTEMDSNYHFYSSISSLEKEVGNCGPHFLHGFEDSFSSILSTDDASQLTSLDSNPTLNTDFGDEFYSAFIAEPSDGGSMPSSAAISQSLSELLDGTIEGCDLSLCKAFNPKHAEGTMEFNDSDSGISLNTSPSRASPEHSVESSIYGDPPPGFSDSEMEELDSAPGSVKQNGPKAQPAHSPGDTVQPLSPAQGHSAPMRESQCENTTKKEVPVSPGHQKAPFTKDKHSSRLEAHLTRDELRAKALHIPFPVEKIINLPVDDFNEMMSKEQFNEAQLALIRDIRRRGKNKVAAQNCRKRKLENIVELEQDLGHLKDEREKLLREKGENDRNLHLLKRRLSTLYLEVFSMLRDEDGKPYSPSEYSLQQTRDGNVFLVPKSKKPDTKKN
Briefly: Activation of NRF2 in mouse MLE12 cells assessed as induction of HMOX1 expression at 10 uM incubated for 6 hrs by immunoblot assay. (In general: A western blot detects proteins with antibodies after separation by electrophoresis.)

The target of assay [2] is T1, Nuclear factor erythroid 2-related factor 2 (Mus musculus). Briefly: Activation of NRF2 in mouse MLE12 cells assessed as increase in NRF2 level at 10 uM incubated for 6 hrs by immunoblot assay.
For assay [3] the target is unchanged. Briefly: Activation of NRF2 in mouse MLE12 cells assessed as induction of NQO1 expression at 10 uM incubated for 6 hrs by immunoblot assay.

Calls of active or inactive are those of the source. No cut-off for these calls is given here.

`COc1ccc(S(=O)(=O)Nc2ccc(NS(=O)(=O)c3ccc(OC)cc3)c3ccccc23)cc1`: the result in assay [1] and in assay [2] was Active.

As to `COc1ccc(S(=O)(=O)N(CC(=O)O)c2ccc(N(CC(=O)O)S(=O)(=O)c3ccc(OC)cc3)c3ccccc23)cc1`, the outcome in assay [1] and in assay [2] was Active.

In the case of `COc1ccc(S(=O)(=O)Nc2ccc(N(CC(=O)O)S(=O)(=O)c3ccc(OC)cc3)c3ccccc23)cc1`, the result in assay [1] and in assay [3] was inactive.

Regarding `CCOC(=O)CN(c1ccc(NS(=O)(=O)c2ccc(OC)cc2)c2ccccc12)S(=O)(=O)c1ccc(OC)cc1`, the result in assay [1] and in assay [2] was Active.

The values above are taken from ChEMBL document CHEMBL3632561, “Probing the structural requirements of non-electrophilic naphthalene-based Nrf2 activators” (Eur J Med Chem, 2015).
